In US4510149A, “N-Imidazolyl derivatives containing naphthalene or indene nucleus” (Farmitalia Carlo Erba S.p.A., priority 1982, dated 1985):
Entries after “also recorded” stand apart in the source; their conditions may differ.

Legend:
[1] = orientative acute toxicity, single oral administration, mice; conditions: in vivo, mouse, same procedure
Protocol: The toxicity of the compounds of the invention is negligible, therefore they can be safely used in therapy. Nine hours food deprived mice and rats were treated orally with single administration of increasing doses, then housed and normally fed. The orientative acute toxicity (LD50) was assessed on the seventh day after the treatment and resulted higher than 3000 mg/kg.

[2] = system: male rats fed hypercholesterolaemic diet; assay: Experiment No. 1: serum lipids in rats fed hypercholesterolaemic diet; assay type: in vivo, rat (Icem: CER (SPF Caw)); conditions: 4 days
Protocol: (§1) The introduction of this new substituent in the new bicyclic compounds has therefore unexpectedly strenghtened these activities. The activity of this particular group of compounds of this invention and of the compounds of the above mentioned U.S. Patent and U.K. published Patent Application was evaluated on groups of Icem: CER (SPF Caw) male rats either fed for six days with hypercholesterolaemic diet according to C. E. Day [Schurr P. E., Schultz H. R., Day C. E. (Eds) Atherosclerosis and drug discovery--Plenum Pub. Corp., 217 (1976)] (Experiment No. 1) or fed standard diet [Altromin] (Experiment No. 2). "Altromin" is a trade mark.
(§2) The compounds were suspended in "Methocel" (methyl cellulose, a 0.5% suspension in water) and administered by stomach tube for 4 days.
(§3) Groups of animals were treated with the suspending agent only (control groups).
(§4) The total serum cholesterol was determined with the method of Trinder P. J. [J.Clin.Pathol., 22, 246 (1969)].
The total serum HDL cholesterol was determined according to Demacker P. N. M. [Clin. Chem., 23, 1238, (1977)].
Statistical analysis in experiment No. 1 was performed by the Student's t test for independent samples or by the Cochran's test when the variances were not homogeneous at the F ratio test [Bliss C. I.--Statistics in Biology, Vol. 1, page 213--Mc Graw Hill Book Company, New York, 1967; Cochran W. G., Cox G. M.--Experimental designs--J. Wiley & Sons Inc., New York, II Ed. (1968) page 100].

[3] = system: collagen-induced platelet aggregation; assay: in vitro inhibition of collagen-induced platelet aggregation in platelet rich plasma; assay type: cell-based, guinea pig; conditions: for inhibition at 12.5 µg/mL: in vitro concentration 12.50 mcg/ml
Protocol: (§5) The platelet antiaggregatory activity of the compounds of the invention was evaluated in vitro and in vivo, for example, according to the modified methods of Born [Born G. V. R., Nature 194, 927 (1962)] and Silver [Silver M. J., Science 183, 1085 (1974)].
(§6) The compounds of this invention were found in vitro to have inhibitory activity on platelet aggregation induced by collagen or ADP (adenosine-5'-disphosphate) in platelet rich plasma of guinea pig [Dunkin Hantley Iva: PDH (SPF) Ivanovas GmBH, Germany].

[4] = system: male rats fed standard diet; assay: Experiment No. 2: serum lipids in rats fed standard Altromin diet; assay type: in vivo, rat (Icem: CER (SPF Caw)); conditions: 4 days
Protocol: as §1, §2, §3, §4
The serum triglycerides were determined with the method of Mendex J. [J. Clin. Chem., 21, 768, (1975)].
W.--J. Amer. Stat. Ass., 50, 1096 (1955)].

TxA2 synthetase = assay: serum TxB2 concentration in rats after single oral dose (activity on TxA2 synthetase in vivo); parameters: species or system rat; conditions: 2 hours
Protocol: (§7) The activity on TxA2 and PGI2 synthetase has been evaluated in vivo. For example, rats were treated with a single oral dose of compound and killed 2 hours later. TxB2 and 6-keto-PGF1α concentrations, the stable metabolites of TxA2 and PGI2 respectively, were determined on serum and plasma respectively.

PGI2 synthetase = assay: plasma 6-keto-PGF1α concentration in rats after single oral dose (activity on PGI2 synthetase in vivo); parameters: species or system rat; conditions: 2 hours
Protocol: as §7

male SHR rats = assay: development of hypertension in SHR rats, mean systemic pressure after seven weeks oral treatment; assay type: in vivo, rat (SHR)
Protocol: For example, one of the compound of this invention, i.e. compound FCE 22178, was given orally to nine male SHR rats for seven weeks at the dosage of 9 mg/kg.
The mean systemic pressure was monitored on an eight channels Beckman polygraph via a Statham pressure transducer, connected to a PE 60 catheter, inserted, 24 hours before monitored, into the left carotid artery.

[5] = system: arachidonic acid (1.4 mg/kg) induced mortality in rabbits; assay: arachidonic acid induced mortality in rabbits; assay type: in vivo, rabbit (New Zealand White)
Protocol: as §5
The compound FCE 22178 was also suspended in Methocel® and administered orally by gavage to rabbits (New Zealand White) at 2 mg/kg one hour before the injection of 1.4 mg/kg of arachidonic acid.

[6] = system: ADP-induced platelet aggregation; assay: in vitro inhibition of ADP-induced platelet aggregation in platelet rich plasma; assay type: cell-based; conditions: guinea pig platelet rich plasma
Protocol: as §5, §6

[7] = system: thromboxane A2 (TXA2) synthetase; conditions: literature / prior filings; cited from earlier work

**Q.** With `COc1ccc2c(c1)CCC(Cn1ccnc1)=C2` [1,2-dihydro-3-(1-imidazolylmethyl)-7-methoxy-naphthalene] as the molecule, how does the LD50 at 168 h [1] read?
**A.** Its LD50 at 168 h is less than 200 mg/kg.

**Q.** With `C1=C(Cn2ccnc2)CCc2ccccc21` [1,2-dihydro-3-(1-imidazolylmethyl)-naphthalene] as the molecule, how does the LD50 at 168 h [1] read?
**A.** The LD50 at 168 h was less than 200 mg/kg.

**Q.** What does the source list for `O=C1c2cc(Cl)ccc2OCC1n1ccnc1` (stereo not shown) [FCE 20204, 3-(1-imidazolyl)-2,3-dihydro-6-chloro-4H-1-benzopyran-4-one, reference compound]?
**A.** Serum HDL cholesterol, % variation vs. controls ([2]; 25 mg/kg/os): +49 % variation vs. controls; Total serum cholesterol, % variation vs. controls ([2]; 25 mg/kg/os): +7 % variation vs. controls; inhibition at 12.5 µg/mL ([3]; Cavia porcellus, Platelet): 0%

**Q.** Which results are given for `COc1ccc2c(c1)C(=O)C(n1ccnc1)CC2` (stereo not shown) [FCE 21848, 2-(1-imidazolyl)-3,4-dihydro-7-methoxy-1(2H)-naphthalenone, reference compound]?
**A.** Serum triglycerides, % variation vs. controls ([4]; 50.00 mg/kg/os): inactive; Total serum cholesterol, % variation vs. controls ([4]; 50.00 mg/kg/os): inactive; inhibition at 12.5 µg/mL ([3]; Cavia porcellus, Platelet): 0%

**Q.** Which “reduction of serum TxB2 concentration” value (TxA2 synthetase; 100 mg/kg) does the source give for `O=C(O)c1ccc2c(c1)C=C(n1ccnc1)CC2` [FCE 22178, 1,2-dihydro-3-(1-imidazolyl)-6-carboxy-naphthalene] here?
**A.** Its value is 90%.

**Q.** And the “reduction of serum TxB2 concentration” value (TxA2 synthetase; dosed up to 9 mg/kg)?
**A.** Its value is “up to 70%”.

**Q.** What about the “change of plasma 6-keto-PGF1α concentration” value (PGI2 synthetase; 100 mg/kg) of the same molecule?
**A.** The value was “doubled”.

**Q.** What about the “increase of plasma 6-keto-PGF1α concentration” value (PGI2 synthetase; dosed up to 9 mg/kg) of the same molecule?
**A.** Its value is “up to 30%”.

**Q.** What about the development of hypertension (male SHR rats; 9 mg/kg orally for seven weeks) of the same molecule?
**A.** Its development of hypertension is “decreased the development of hypertension”.

**Q.** What about the “Mean systemic pressure, Treated” value (male SHR rats; 9 mg/kg orally, 7 weeks, controls 177 ± 5.06) of the same molecule?
**A.** Its value is 154.8 ± 14.1 mm Hg ± E.S.

**Q.** And the “effect on arachidonic acid induced mortality” value ([5]; 2 mg/kg orally)?
**A.** The value was “greatly decreases”.

**Q.** What about the Mortality ([5]; 2 mg/kg/os, one hour before arachidonic acid 1.4 mg/kg, Methocel control 9/9) of the same molecule?
**A.** The Mortality was 3/9.

**Q.** What does the source list for `COc1ccc2c(c1)C=C(n1ccnc1)CC2` [FCE 22466, 1,2-dihydro-3-(1-imidazolyl)-6-methoxy-naphthalene]?
**A.** inhibition of collagen-induced platelet aggregation ([3]; 25 mcg/ml): totally inhibits collagen-induced platelet aggregation in three out of four samples; inhibition at 12.33 µg/mL ([3]; Cavia porcellus, Platelet, in vitro concentration 12.33 mcg/ml): 50%; activity on collagen-induced platelet aggregation ([3]; in vitro, guinea pig platelet rich plasma): active; activity on ADP-induced platelet aggregation [6]: active

**Q.** With `CC(C)(Oc1ccc2c(c1)C=C(n1ccnc1)CC2)C(=O)O` [FCE 22473, 1,2-dihydro-3-(1-imidazolyl)-6-(2-carboxy-isopropoxy)-naphthalene] as the molecule, how does the “Serum HDL cholesterol, % variation vs. controls” value ([2]; 27 mg/kg/os) read?
**A.** Its value is “+77 % variation vs. controls”.

**Q.** And the “Total serum cholesterol, % variation vs. controls” value ([2]; 27 mg/kg/os)?
**A.** The value was -73 % variation vs. controls.

**Q.** And the “Serum triglycerides, % variation vs. controls” value ([4]; 16.67 mg/kg/os)?
**A.** The value was -57 % variation vs. controls.

**Q.** And the “Total serum cholesterol, % variation vs. controls” value ([4]; 16.67 mg/kg/os)?
**A.** The value was -32 % variation vs. controls.

**Q.** With `c1c[nH]cn1` [imidazole] as the molecule, how does the “inhibition of TxA2 synthetase” value [7] read?
**A.** Its value is “able to inhibit; also recorded: only a very weak TXA2 inhibiting effect”.
